Laboratory results reported in a melting point compilation (Tetko et al.; mined from patent text by program, amines drawn as free bases though some values may be those of a salt).

First: C=C1CCC(c2ccc(N3CC(COC)OC3=O)cc2)CC1 (racemic)
Second: COc1c(C)c(N2CCN(c3ccc(C(F)(F)F)cc3)CC2)c(C)c2c1OC(C)C2 (stereo not drawn)
The melting point of the first is lower: 63 to 65 °C for the first, 142 to 145 °C for the second.

Compared with COc1ccc(C)cc1C(CCO)c1ccccc1 (stereo not drawn), COc1ccccc1C1(Cl)C(=O)Nc2cc(C)c(Cl)cc21 (stereo not drawn) is higher in melting point: 64 °C for the first, 254 to 256 °C for the second.

Compared with CC1(C)SC2C(NC(c3ccccc3)(c3ccccc3)c3ccccc3)C(=O)N2C1C#N (stereo not drawn), S=c1nc(-c2ccc(Cl)cc2Cl)[nH]n1Cc1ccccc1 is higher in melting point: 116 to 119 °C for the first, 169 to 170 °C for the second.

Compared with CCCOc1ccc(S(C)(=O)=O)cc1-c1nc(OC)c2[nH]nc(CC)c2n1, CCCOc1cc(O)nc(N(C)C)n1 is higher in melting point: 137 to 139 °C for the first, 194 to 195 °C for the second.

Compared with O=C(NCCN1CCC(C(=O)c2ccc(F)cc2)CC1)c1cccnc1, O=c1[nH]c(NCCCOc2cccc(CN3CCCCC3)c2)ncc1CCCc1ccccc1 is lower in melting point: 118 °C for the first, 104 to 108 °C for the second.

First: Cc1nc(C)c(Cl)c(NCc2nccc(SCCCSCC3CN(C)C(=O)O3)c2C)n1 (stereo not drawn)
Second: O=C1c2ccccc2C(=O)N1c1ccc(Cl)c2c1CC(CO)O2 (stereo not drawn)
The melting point of the first is lower: 121 °C for the first, 181 to 183 °C for the second.

First: CCCCCCCCCCCCCCOc1ccc([N+](=O)[O-])cc1
Second: CCOCc1nc2c(N)nc3cc(-c4ccccc4)ccc3c2n1CC1CCNCC1
The melting point of the first is lower: 57 to 60 °C for the first, 142 to 143 °C for the second.

First: O=c1c(-c2ccccc2O)coc2c(O)c(O)ccc12
Second: COc1ccc(C(=O)NC(=O)Nc2cc3c(cc2F)/C(=C/c2ccc[nH]2)C(=O)N3)cc1
The melting point of the first is lower: 240 to 242 °C for the first, 290 to 295 °C for the second.

First: COc1c(Cl)nc(N2CCOCC2)nc1Cl
Second: N#Cc1c(OCC#CI)nsc1SC(F)F
The melting point of the first is higher: 116 °C for the first, 106 to 107 °C for the second.
